In series [1] the test system is HSV-2. Put plainly: HSV-2 plaque reduction assay on Vero cells. The format is cell-based, Herpes 2 virus (HSV-2).
The test system of another series is H1N1. Put plainly: H1N1 inhibition assay on MDCK cells. It is filed as cell-based, Influenza virus H1N1. The procedure: MDCK cells were pre-plated in 96-well plates. The following day, concentrations of compounds ranging from 50 μM to 0.0001 μM in DMSO were mixed with H1N1 (MOI 0.05 pfu/cell) and incubated for 1 hour at 37° C. The mixtures were subsequently added to the cells for 1 h at 37° C., after a washout, cells were overlaid with MEM for 16 h at 37° C. Cells were then fixed and subjected to specific immunostaining using a Flu A monoclonal antibody (Merck 5001) in order to visualize infected cells. EC50 were calculated by comparing numbers of infected cells in treated and untreated wells. The effective concentration producing 50% reduction in plaque formation (EC50) was determined using Prism software. The selectivity index (SI) was calculated by dividing the CC50 by the EC50 value.

For a further series, the system named is HSV-2 Acy R. Put plainly: microbe, parasite or virus in culture. The note with it: Human alphaherpesvirus 2, Vero. The format is cell-based, HSV-2 acyclovir resistant.
The test system of a further series is HCMV. Description: HCMV inhibition assay on HELF cells. It is filed as cell-based, HCMV strain Towne. Particulars: Human betaherpesvirus 5, HELF. The method, then:
HELF cells were pre-plated in a 96-well plate. The following day concentrations of compounds ranging from 50 μM to 0.0001 μM in DMSO were mixed with HCMV (MOI 0.005 pfu/cell) and incubated for 1 hour at 37° C. The mixtures were subsequently added to the cells, which were then incubated at 37° C. for 3 h; monolayers were then washed and overlaid with 1.2% methylcellulose medium supplemented with 3% FCS and 1 mM sodium pyruvate. After five days incubation, cells were observed under an inverted Zeiss LSM510 fluorescence microscope (Zeiss, Oberkochen, Germany) and the EC50 were calculated by comparing GFP positive cells in treated and untreated wells. The effective concentration producing 50% reduction in plaque formation (EC50) was determined using Prism software. The selectivity index (SI) was calculated by dividing the CC50 by the EC50 value.

The nature of series [2]: Cell viability (MTS) assay, HELF cells. The format is cell-based. Particulars: human, conditions of the HCMV assay. The procedure: (§1) Cell viability was measured using the MITS [3-(4,5-dimethylthiazol-2-yl)-5-(3 carboxy methoxy phenyl)-2-(4-sulfophenyl)-2H-tetrazolium] assay. Cell cultures were seeded in 96-well plates and were incubated with different concentrations of compounds of the invention in triplicate under the same experimental conditions described for the antiviral assays. Cell viability was determined using the CellTiter 96 Proliferation Assay Kit (Promega, Madison, WI, USA) according to the manufacturer's instructions. Absorbances were measured using a Microplate Reader (Model 680, BIORAD) at 490 nm. The effect on cell viability at different concentrations of the compound was expressed as a percentage, by comparing absorbances of treated cells with those of cells incubated with culture medium and equal volumes of vehicle. The 50% cytotoxic concentrations (CC50) and 95% confidence intervals (CIs) were determined using Prism software (Graph-Pad Software, San Diego, CA).

The test system of a further series is RSV. Description: RSV inhibition assay on Hep-2 cells. The note with it: human respiratory syncytial virus. The format is cell-based, RSV strain A2. The method, then: Hep-2 cells were pre-plated in a 96-well plate. The following day concentrations of compounds ranging from 50 μM to 0.0001 μM in DMSO were mixed with RSV (MOI 0.005 pfu/cell) and incubated for 1 hour at 37° C. The mixtures were subsequently added to the cells, which were then incubated at 37° C. for 3 h; monolayers were then washed and overlaid with 1.2% methylcellulose medium. 72 hours later cells were fixed and subjected to specific immunostaining using an RSV monoclonal antibody (Ab35958; Abeam, Cambridge, United Kingdom) in order to visualize syncytia. EC50 were calculated by comparing numbers of syncytia in treated and untreated wells. The effective concentration producing 50% reduction in plaque formation (EC50) was determined using Prism software. The selectivity index (SI) was calculated by dividing the CC50 by the EC50 value.

In the next series the test system is VSV. Description: microbe, parasite or virus in culture. It is filed as cell-based, Vesicular Stomatitis Virus (VSV). The note with it: Vesicular stomatitis virus, Vero.
Series [3] can be described thus: Cell viability (MTS) assay, HeLa cells. It is filed as cell-based, human. Particulars: human, HeLa cells; conditions of the HPV-16 assay. The procedure:
as §1

The test system of a further series is HeLa cells. Description: Cell viability (MTS) assay, HeLa cells. The format is cell-based, human. The note with it: conditions of the Ad5 assay. The method, then:
as §1

Series [4] in a line: Cell viability (MTS) assay, MA104 cells. The format is cell-based. Particulars: African green monkey, conditions of the HRoV assay. The method, then:
as §1

Series [5] has as its system HSV-2. Description: Binding of virus to cell (ELISA, immunofluorescence). It is filed as cell-based, Herpes 2 virus (HSV-2). The note with it: 10 μM, HSV-2, Vero cells. The method, then:
Vero Cells were plated in 96 well plates. The following day 10 μM of compound 15b in DMSO and HSV-2 (MOI 10 pfu/cell) were incubated for 1 h at 37° C. and subsequently added on cells for 2 hours at 4° C. Cells were then fixed with 4% paraformaldehyde, air dried, and blocked with 5% bovine serum albumin (BSA) in phosphate-buffered saline (PBS)-Tween. Binding of virus to vero cells was detected using the polyclonal HSV-2 antibody (Dako, Denmark) (diluted 1:250) incubated for 1 h at room temperature, washed three times with PBS-Tween, and incubated for 1 h at 37° C. with anti-rabbit conjugated to horseradish peroxidase (1:500). At the end of incubation, plates were washed three times with PBS-Tween, ABTS[2,2-azinobis(3-ethyl benz thiazoline sulfonic acid)] (A1888 SIGMA ALDRICH) substrate was added for 30 minutes (Thermo Scientific, Rockford, IL), and the absorbance at 405 nm was read.
Vero cells were pre-plated on coverslips and the following day the binding or entry protocol described above was applied. […] Rhodamine conjugated anti-rabbit IgG (Santa Cruz) was then added on cells for 1 h at 37° C. following 3 washes coverslips were mounted on microscope glasses and observed with Zeiss LSM510 fluorescence microscope (Zeiss, Oberkochen, Germany) and images were acquired (FIG. 3A, 3B).

Series [6] is described as follows: Lipoperoxidation test (TBA assay).
Method: To evaluate the lipid oxidation capability of 15b, a lipoperoxidation test was carried out.
The effect of 15b was evaluated toward the oxidation of linoleic acid, incorporated in DPPC liposomes, using TBA assay. The assay is based on the reactivity of malondialdehyde (MDA), a colorless end-product of degradation, with 2-thiobarbituric acid (TBA) to produce a pink adduct (TBA-MDA-TBA) that absorbs at 535 nm. […] MDA was detected spectrophotometrically according to methods described in literature (Boon-Huat Bay, Yuan-Kun Lee, Benny Kwong-Huat Tan, Eng-Ang Ling, Lipid peroxidative stress and antioxidative enzymes in brains of milk-supplemented rats, Neuroscience Letters 277 (1999) 127-130).
15b was incubated at 37° C. for 2 h with a 0.5% linoleic acid containing liposome aqueous dispersion (Cagno, V.; Tintori, C.; Civra, A.; Cavalli, R.; Tiberi, M.; Botta, L.; Brai, A.; Poli, G.; Tapparel, C.; Lembo, D.; et al. Novel Broad Spectrum Virucidal Molecules against Enveloped Viruses. 2018). […] The organic supernatant was evaluated by spectrophotometry.
The calibration curve of TBA-MDA-TBA complex was obtained using a MDA precursor 1,1,3,3-tetraethoxypropane. […] The solutions were subjected to TBA assay and analyzed at spectrophotometer. […]

Structures are written as SMILES. pEC50: −log10 of the molar value. Entries after “also recorded” stand apart in the source; their conditions may differ. Where only a bound is given, the exact number is not on record here.

In general, EC90 refers to the concentration needed for an effect of 90%. Read a high EC90 as a need for much substance. The pEC50 is the negative decadic logarithm of the EC50, by convention in mol/L. A higher pEC50 goes with a low EC50. By CC50 is commonly meant the concentration at which the toxic effect on the cells reaches its halfway point. Lower therefore signals greater toxicity to the cells. For `O=C1NC(=S)N(CCc2ccccc2)C(=O)/C1=C\c1ccc(-c2ccc(C(=O)O)c(O)c2)[nH]1` [Compound 15b, (Z)-4-(5-((4,6-dioxo-1-phenethyl-2-thioxotetrahydropyrimidin-5(2H)-ylidene)methyl)-1H-pyrrol-2-yl)-2-hydroxybenzoic Acid], the SI selectivity index in the series with HSV-2 [1] (HSV-2, CC50 divided by EC50) is recorded as greater than 3452; with H1N1 (H1N1, CC50 divided by EC50) it was greater than 77. The EC90 in the series with HSV-2 [1] (Human alphaherpesvirus 2, Vero, HSV-2 infected cells, 90% effective concentration) turned out to be 1.19 µM; in the series on H1N1 (Influenza A virus, H1N1, MDCK) it was 3.88 µM; in the series on HSV-2 Acy R, 0.42 µM; in the series with HCMV, 0.772 µM; in the series with RSV it was 1.51 µM; in the series with VSV it was 2.17 µM. For the same compound, the pEC50 in the series on HSV-2 [1] (Human alphaherpesvirus 2, Vero, HSV-2 infected cells, compound mixed with virus 1 hour at 37° C.) was 7.06; in the series with H1N1 (Influenza A virus, H1N1, MDCK), 5.91; in the series with HSV-2 Acy R it was 7.08; in the series with HCMV, 6.93; in the series with RSV, 6.50; in the series with VSV, 6.84. For the same compound, the CC50 in series [2] was 36.3 µM; in series [3] it was greater than 300 µM; in the series with HeLa cells, greater than 300 µM; in series [4], greater than 300 µM. For the same compound, the “viral binding / percentage of bound virus” value in the series with HSV-2 [5] was “not impairing viral binding; also recorded: the same”. Besides, in series [6] (37° C. for 2 h, 0.5% linoleic acid containing liposomes, MDA readout), the lipid oxidation capability result is “able to oxidize polyunsaturated fatty acids”. Moreover, the “oxidation of linoleic acid with tocopherol added” value in series [6] (with 0.05% w/w (±)-α-tocopherol as antioxidant) was “reduced the oxidation of linoleic acid”.

The record behind these values is patent publication US11814366B2, “Antiviral compounds and use thereof” (UNIVERSITA DEGLI STUDI DI SIENA, priority 2018, dated 2023).
